Measured values from paper PMC10403513, “Tasmanian devil cathelicidins exhibit anticancer activity against Devil Facial Tumour Disease (DFTD) cells” (Scientific Reports, 2023).
No end group written: not given here.

What was measured:
DFT1 1426 cells [1] = format: cell-based, Tasmanian devil (Sarcophilus harrisii)
Protocol: The DFT1 cell line 1426, derived from a primary DFT1 tumour, was obtained from Menzies Institute for Medical Research, University of Tasmania. The cell line was maintained in RPMI 1640 media with 2 mM L-glutamine (Gibco) supplemented with 10% AmnioMax II (Gibco), 10% heat-inactivated foetal bovine serum (FBS) and 1% penicillin/streptomycin (Sigma-Aldrich), in T75 flasks (Nunc) at 35 °C 5% CO2. Cells were passaged using trypsin–EDTA (Sigma-Aldrich) when 90% confluent.
Toxicity of seven Tasmanian devil cathelicidins against DFT1 1426 cells was determined for twofold dilutions from 500 to 15.62 µg/mL, and four different timepoints (12, 18, 24 and 36 h). Confluent DFT1 1426 cells (passage 22) were re-suspended in RPMI 1640 with 10% FBS and 10% AmnioMax II at a concentration of 5 × 10^5 cells/mL, and 100μL seeded into each well of a sterile flat-bottom 96 well plate (Corning), with individual plates for each timepoint (12, 18, 24 and 36 h). All plates were incubated for 24 h at 35 °C 5% CO2 prior to the cytotoxicity test.
At 0 h, 100 μL of each peptide dilution was then added to each plate in quadruplicate for all timepoints (12, 18, 24 and 36 h), resulting in a final peptide concentrations of 500 μg/mL, 250 μg/mL, 125 μg/mL, 62.50 μg/mL, 31.25 μg/mL and 15.62 μg/mL. […] An untreated growth control of RPMI 1640, a positive control of dimethylsulfoxide (DMSO) (15%) and sterility control of RPMI 1640 only (no cells) were also included for each time point.
For the 12 h timepoint, 10% alamarBlue was immediately added to each well of the plate after addition of the peptide. For the remaining timepoints, plates were incubated for an additional 6, 12 or 24 h after addition of the peptides, then 10% alamarBlue added to each well. For all timepoints, after the addition of alamarBlue cells were incubated for a further 12 h, resulting in a total peptide incubation period of 12, 18, 24 and 36 h. Absorbance of alamarBlue for all timepoints was determined at 570 nm and 630 nm on a Biotek 800 TS microplate reader. Cell viability was calculated according to manufacturer’s instructions and expressed as a percentage of cell survival compared to the untreated growth control.
A one-sample, one-tailed t-test was used to test for significant difference in viability between treated cells and the negative growth control. A one sample, two-tailed t-test was also conducted to ensure there was no significant difference in viability between the negative growth control and the cells treated with the solvent only. Statistical analysis was conducted in R (R Development Core Team 2021).

DFT1 1426 cells [2] = assay: RNAseq differential gene expression in peptide-treated DFT1 1426 cells; format: cell-based, Tasmanian devil (Sarcophilus harrisii); settings: 500 μg/mL, 10 h, n = 3, vs vehicle control
Protocol: RNAseq was used to characterize the mechanisms underlying the anticancer activity of the peptides. Confluent DFT1 1426 cells (passage number 25) were re-suspended at a concentration of 5 × 10^5 cells/ml and 1 mL seeded into each well of a sterile flat-bottom polystyrene 12-well plate (Corning). Following incubation for 24 h at 35 °C 5% CO2, media was aspirated from the cells and replaced with 500 μL of RPMI 1640 with 2 mM L-glutamine, 10% FBS and 10% AmnioMax II. 500 μL of each 1 mg/mL peptide solution (Saha-CATH1 to 7) was then added to the plate in triplicate, to give a final peptide concentration of 500 μg/mL. […] A vehicle control was also added to the plate in triplicate.
The plate was then incubated for a further 10 h at 35 °C in 5% CO2. This incubation period was selected as the cytotoxicity assay indicated it was sublethal for most of the peptides and would maintain sufficient cell viability to extract intact RNA. Media was then aspirated from the cells, which were washed twice with Dulbecco’s phosphate buffered saline (DPBS) (Sigma-Aldrich).
Total RNA was extracted from each replicate of the peptide-treated and vehicle control cells (n = 3) using the RNeasy mini kit (Qiagen) with cell lysis directly in each well of the 12 well plate. Total RNA was quality assessed using the RNA nano 6000 kit on the Agilent Bioanalyzer with all samples displaying a RIN score between 5 and 9. In total, 24 RNA samples corresponding to three treatments per peptide (Saha-CATH1 to 7) and a vehicle control were submitted to Ramaciotti Centre for Genomics (The University of New South Wales) for sequencing. Illumina TruSeq mRNA libraries were prepared for all samples, which were sequenced as 2 × 150 bp paired-end reads across an SP flowcell on the NovaSeq6000.
Raw reads were quality assessed using FastQC v0.11.8[47], then quality and length trimmed using Trimmomatic v0.39[48] using default parameters. Trimmed reads for each treatment (n = 3) and the control (n = 3) were aligned to the Tasmanian devil reference genome v7.0 (NCBI: GCA_000189315.1[49] using STAR v2.7.8a[50]. Alignments for each treatment were summarized into gene counts using featureCounts in the subread package v1.5.1[51].
Gene counts were used as input for differential expression analysis in R[52]. Genes with less than 50 counts across all samples were removed from the analysis, as these were unlikely to be biologically relevant and lacked sufficient statistical power. Firstly, the data was normalized by trimmed mean of M values (TMM) using edgeR v3.32.1[53] to account for any composition bias between libraries and to give an effective library size for downstream analysis. Multidimensional scaling (MDS) was used to check for variation between treatments using limma v3.36.0[54]. Expression levels were then normalized using upper-quartile normalization in EDAseq v2.24.0[55] to account for differences in distribution between lanes, such as sequencing depth. Differential expression analysis was performed using voom in the limma v3.36.0 package.
(§1) Over-representation analysis of Biological Processes was conducted in clusterProfiler v3.18.1[57]. Statistical significance was adjusted for multiple comparisons using the Benjamini–Hochberg method, and terms were considered significant when p-adj < 0.05. To remove general terms, gene sets larger than 200 were removed, and the simplify function was used to remove redundant GO terms. Further pathway analysis was conducted in IPA (Qiagen)[58], using mammal as the species type and nervous system for the tissue/cell type.

DFT1 1426 cells [3] = assay: Ingenuity Pathway Analysis (canonical pathways) of DE genes in treated DFT1 1426 cells; format: cell-based, Tasmanian devil (Sarcophilus harrisii); settings: DE genes of cells treated with 500 μg/mL for 10 h
Protocol: as §1

human cell line A549 = settings: 500 µg/mL; cited from earlier work
Protocol: Here we aimed to identify cathelicidin candidates for future development as anti-DFTD therapeutics. Four Tasmanian devil cathelicidins (Saha-CATH3, 4, 5 and 6) were toxic to DFT1 1426 cells at high concentrations: Saha-CATH3 at concentrations ≥ 62.5 µg/mL; Saha-CATH4 at 500 µg/mL; Saha-CATH5 at concentrations ≥ 125 µg/mL and Saha-CATH6 at concentrations ≥ 250 µg/mL. Previous studies have shown that two of these peptides (Saha-CATH3 and 4) are non-toxic to human cell line A549[44]. The other two (Saha-CATH5 and 6) reduced cell viability at high concentrations (500 µg/mL), resulting in 42% and 5 ...

human red blood cells = settings: human red blood cells; cited from earlier work
Text: Cathelicidins have been isolated from many vertebrate taxa[34]–[37]. However, they have undergone gene expansion in marsupials due to the need for additional protection of immunologically naïve young during development in the pouch. […] During development within the pouch, young are exposed to diverse microbial flora, some of which are pathogenic. This has likely encouraged the lineage-specific expansion of cathelicidins in marsupials, resulting in mult ...

[4] = pre-replication complex, RNAseq

## KRIGLGGLIGRILDRLRRLG [Saha-CATH5]
DFT1 1426 cells [1]; 500 μg/mL, 36 h, DFT1 1426 cells, alamarBlue, quadruplicate
  decrease in cell viability compared to the growth control: more than 50%
DFT1 1426 cells [1]; 500 µg/mL, after 18 h, mean of quadruplicate
  cell viability (% of untreated growth control): 0%
DFT1 1426 cells [1]; 36 h
  cytotoxic concentration (cell viability reduced by more than 50%): ≥ 125 µg/mL
DFT1 1426 cells [1]; summary in the discussion
  concentration toxic to DFT1 1426 cells: ≥ 125 µg/mL
DFT1 1426 cells [2]; RNAseq
  Fold change (FC), gene ERBB3: 0.34
DFT1 1426 cells [2]; G1-S phase transition, RNAseq
  Fold change, gene CCND1: 0.52
  Fold change, gene CCNE1: 0.37
  Fold change, gene CCNE2: 0.30
DFT1 1426 cells [2]; of 15,548 genes
  percentage of DE genes: 74.05%
DFT1 1426 cells [2]; [4]
  Fold change, gene CDC6: 0.39
  Fold change, gene CDC45: 0.42
  Fold change, gene ORC1: 0.54
DFT1 1426 cells [3]
  IPA z-score, ERBB2-ERBB3: -4.439
  IPA z-score, ERBB4 signaling: -5.425
  IPA z-score, ERBB signaling: -6.068
  IPA z-score, Hippo signalling: 0.898
  IPA z-score, cell cycle control of chromosomal replication: -3.780
Human cell line A549
  cell survival of human cell line A549: 42%
Human red blood cells
  concentration at which moderately haemolytic: above 250 μg/mL
